Results reported in patent US6610750B1, “Treatment of osteoarthritis” (Laboratoires Negma, priority 2000, dated 2003).

Columns and labels:
[1] = test system: prostaglandin biosynthesis; settings: cited from earlier work
[2] = test system: osteoarthritis; settings: after the start of the treatment; cited from earlier work
[3] = test system: patients with severe to moderate hip osteoarthritis; experiment: three-year, randomized, double-blind, placebo-controlled study of radiological progression of hip osteoarthritis; type: in vivo, human
Description: In order to further explore the potential usefulness of diacerein in the treatment of osteoarthritis, and to closely monitor the relevance of the effects of the treatment by using an accurate radiographic technique, the inventors carried out a 3-year, randomized, double-blind and placebo-controlled multicenter clinical trial in 507 patients with hip osteoarthritis. The unexpected result of the study was that diacerein has a beneficial effect as a structure-modifying treatment for osteoarthritis, as evidenced radiographically by a reduction of the destructive progression of hip osteoarthritis. The results of this study are reported in Dougados M., Nguyen M., Berdah L., Lequesne M., Mazières B., Vignon E. 1999; “Evaluation of the structural (radiological) effect of diacerein in osteoarthritis of the hip: a 3-year placebo controlled study”, Osteoarthritis and Cart 7, Suppl. A: 123, and are by reference thereto incorporated herein in their entirety.
In a three-year, randomized, double-blind, placebo-controlled study, 507 patients with severe to moderate hip osteoarthritis were assigned to receive either diacerein, 50 mg twice daily, or an identical placebo. The primary criterion of radiological progression of osteoarthritis was defined by a reduction in the joint space width or at least 0.5 mm during the study. The annual joint space narrowing rate (mm/year) was also determined in the patients who completed the treatment.
A total of 482 patients who had at least two radiographs were evaluated. Baseline characteristics of the 241 patients in each group were similar. In the placebo group, 62.7% of the patients had radiological progression, compared to 53.9% in the diacerein group (log-rank test: p=0.037). Treatment was followed for three years by 269 patients, among whom 55.1% in the placebo group and 41.2% in the diacerein group had radiological progression (log-rank test: p=0.007).

[4] = test system: IL-1 and other cytokines (IL-6 and TNF); settings: several studies in vitro and with animal models of osteoarthritis; cited from earlier work
[5] = solubility of diacerein; type: physicochemical

solubility in alcohol ([5]; alcohol): virtually insoluble | solubility in water ([5]; water): virtually insoluble
Structure (SMILES): CC(=O)Oc1cccc2c1C(=O)c1c(OC(C)=O)cc(C(=O)O)cc1C2=O [diacerein, diacetylrhein]
inhibitory effect on the phospholiphase, cyclo-oxygenase or lipo-oxygenase pathways (prostaglandin biosynthesis) [1]: no inhibitory effect | time of onset of the effect [2]: ≥ 4 weeks | annual joint space narrowing rate ([3]; 269 patients who completed three years, diacerein 50 mg twice daily, placebo 0.23±0.23, p=0.042): 0.18±0.25 mm/year | patients with radiological progression (reduction in joint space width of at least 0.5 mm) ([3]; 269 patients who followed treatment for three years, diacerein 50 mg twice daily, placebo 55.1%, log-rank p=0.007): 41.2% | patients with radiological progression (reduction in joint space width of at least 0.5 mm) ([3]; 482 patients with at least two radiographs, 241 per group, diacerein 50 mg twice daily, placebo 62.7%, log-rank p=0.037): 53.9% | structure-modifying effect as compared to placebo ([3]; over the three-year period): statistically significant structure-modifying effect | inhibition of IL-1 and other cytokines (IL-6 and TNF) [4]: inhibit
